According to article PMC6917776, “Discovery of a chemical probe for PRDM9” (Nature Communications, 2019):
Like-named read-outs stand apart in the source and are kept apart here.

Tests used:
Assay in all cases: Methyltransferase selectivity assay (SPA)
Assay type in all cases: biochemical
PRMT3 = target: T1, PRMT3 (Homo sapiens, UniProt O60678)
T1 construct: purchased Structural Genomics Consortium (SGC Toronto) in-house methyltransferase panel

MLL3 pentameric complex = target: T2, MLL3 pentameric complex (Homo sapiens, UniProt Q8NEZ4)
T2 construct: purchased Structural Genomics Consortium (SGC Toronto) in-house methyltransferase panel

SUV39H1 = target: T3, SUV39H1 (Homo sapiens, UniProt O43463)
T3 construct: purchased Structural Genomics Consortium (SGC Toronto) in-house methyltransferase panel
T3 sequence (O43463 1-412): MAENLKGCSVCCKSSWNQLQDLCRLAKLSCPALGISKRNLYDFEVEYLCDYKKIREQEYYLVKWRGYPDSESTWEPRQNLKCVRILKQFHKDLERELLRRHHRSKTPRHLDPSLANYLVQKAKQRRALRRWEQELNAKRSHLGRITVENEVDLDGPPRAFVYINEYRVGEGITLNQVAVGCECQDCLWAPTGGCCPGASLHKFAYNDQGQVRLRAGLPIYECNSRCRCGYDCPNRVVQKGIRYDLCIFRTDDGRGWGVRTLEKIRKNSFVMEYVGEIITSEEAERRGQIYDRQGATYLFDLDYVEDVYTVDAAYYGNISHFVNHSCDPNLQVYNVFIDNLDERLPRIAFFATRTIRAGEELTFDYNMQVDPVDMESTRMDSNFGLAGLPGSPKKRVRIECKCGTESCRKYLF

[1] = target: T4, EZH2 (PRC2) trimeric complex (Homo sapiens, UniProt Q15910)
T4 construct: purchased Structural Genomics Consortium (SGC Toronto) in-house methyltransferase panel

PRMT6 = target: T5, PRMT6 (Homo sapiens, UniProt Q96LA8)
T5 construct: purchased Structural Genomics Consortium (SGC Toronto) in-house methyltransferase panel

SUV420H1 = target: T6, SUV420H1 (Homo sapiens, UniProt Q4FZB7)
T6 construct: purchased Structural Genomics Consortium (SGC Toronto) in-house methyltransferase panel

SETD7 = target: T7, SETD7 (Homo sapiens, UniProt Q8WTS6)
T7 construct: purchased Structural Genomics Consortium (SGC Toronto) in-house methyltransferase panel
T7 sequence (Q8WTS6 1-366): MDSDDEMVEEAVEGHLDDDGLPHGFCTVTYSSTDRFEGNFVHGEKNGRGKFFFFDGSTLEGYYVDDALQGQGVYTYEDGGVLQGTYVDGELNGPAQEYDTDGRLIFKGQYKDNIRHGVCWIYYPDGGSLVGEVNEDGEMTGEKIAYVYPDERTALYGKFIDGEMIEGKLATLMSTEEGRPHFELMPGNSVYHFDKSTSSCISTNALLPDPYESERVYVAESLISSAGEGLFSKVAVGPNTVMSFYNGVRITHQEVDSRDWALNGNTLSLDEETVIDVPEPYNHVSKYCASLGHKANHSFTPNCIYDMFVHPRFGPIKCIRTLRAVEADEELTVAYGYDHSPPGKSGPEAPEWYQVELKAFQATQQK

[2] = 10µM compound, Exp1, Exp2, 10 µM
[3] = 1µM compound, Exp1, Exp2, read-out: Activity %
[4] = 10µM compound, Exp1, Exp2, read-out: Activity %

T5 sequence (Q96LA8 whole entry): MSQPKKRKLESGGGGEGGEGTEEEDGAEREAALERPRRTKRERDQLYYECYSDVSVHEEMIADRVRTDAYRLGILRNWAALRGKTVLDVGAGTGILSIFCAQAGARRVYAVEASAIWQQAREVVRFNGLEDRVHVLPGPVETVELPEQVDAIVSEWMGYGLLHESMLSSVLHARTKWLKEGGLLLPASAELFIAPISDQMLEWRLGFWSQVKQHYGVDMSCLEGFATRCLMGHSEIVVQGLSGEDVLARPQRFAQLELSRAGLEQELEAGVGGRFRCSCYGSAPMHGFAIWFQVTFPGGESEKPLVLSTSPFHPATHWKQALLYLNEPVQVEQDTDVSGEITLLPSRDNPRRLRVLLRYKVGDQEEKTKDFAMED
T1 sequence (O60678 whole entry): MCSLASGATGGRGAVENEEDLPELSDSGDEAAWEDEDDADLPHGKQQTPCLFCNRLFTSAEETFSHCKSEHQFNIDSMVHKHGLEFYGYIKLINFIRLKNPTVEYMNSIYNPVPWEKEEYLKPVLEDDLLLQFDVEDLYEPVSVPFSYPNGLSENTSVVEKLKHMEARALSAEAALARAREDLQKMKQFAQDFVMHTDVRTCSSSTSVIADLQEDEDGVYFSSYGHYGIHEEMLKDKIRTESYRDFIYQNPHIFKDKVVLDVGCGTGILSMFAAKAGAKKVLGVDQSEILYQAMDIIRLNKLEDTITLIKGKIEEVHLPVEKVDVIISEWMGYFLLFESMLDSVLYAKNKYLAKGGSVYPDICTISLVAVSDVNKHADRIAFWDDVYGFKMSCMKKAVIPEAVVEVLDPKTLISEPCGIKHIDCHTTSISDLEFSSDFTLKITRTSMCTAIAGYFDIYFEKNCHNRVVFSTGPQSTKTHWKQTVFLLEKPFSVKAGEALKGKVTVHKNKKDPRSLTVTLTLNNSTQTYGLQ
T6 sequence (Q4FZB7 whole entry): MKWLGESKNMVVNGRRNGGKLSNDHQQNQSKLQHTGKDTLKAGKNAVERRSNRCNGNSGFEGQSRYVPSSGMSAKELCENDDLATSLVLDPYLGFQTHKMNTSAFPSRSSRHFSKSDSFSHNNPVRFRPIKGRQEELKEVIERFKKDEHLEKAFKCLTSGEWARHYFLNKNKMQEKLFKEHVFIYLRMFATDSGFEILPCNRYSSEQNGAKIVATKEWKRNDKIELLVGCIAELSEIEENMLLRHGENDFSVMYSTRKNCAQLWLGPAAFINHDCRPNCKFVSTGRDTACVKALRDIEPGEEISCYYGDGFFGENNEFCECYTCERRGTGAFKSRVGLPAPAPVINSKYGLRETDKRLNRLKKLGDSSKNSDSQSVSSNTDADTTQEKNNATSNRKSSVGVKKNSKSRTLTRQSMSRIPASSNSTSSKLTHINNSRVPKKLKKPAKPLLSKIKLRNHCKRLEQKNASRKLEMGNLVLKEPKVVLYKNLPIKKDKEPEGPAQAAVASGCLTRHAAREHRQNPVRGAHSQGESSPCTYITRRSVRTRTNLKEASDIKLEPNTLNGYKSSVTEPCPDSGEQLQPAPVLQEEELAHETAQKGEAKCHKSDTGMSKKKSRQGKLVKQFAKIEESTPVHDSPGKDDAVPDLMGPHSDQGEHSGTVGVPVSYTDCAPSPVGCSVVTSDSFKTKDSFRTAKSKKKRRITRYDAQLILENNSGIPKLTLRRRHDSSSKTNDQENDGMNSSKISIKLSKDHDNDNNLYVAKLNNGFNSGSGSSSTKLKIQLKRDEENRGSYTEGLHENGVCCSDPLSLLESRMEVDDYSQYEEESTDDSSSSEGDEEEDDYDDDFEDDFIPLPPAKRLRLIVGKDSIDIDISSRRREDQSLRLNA
T4 sequence (Q15910 whole entry): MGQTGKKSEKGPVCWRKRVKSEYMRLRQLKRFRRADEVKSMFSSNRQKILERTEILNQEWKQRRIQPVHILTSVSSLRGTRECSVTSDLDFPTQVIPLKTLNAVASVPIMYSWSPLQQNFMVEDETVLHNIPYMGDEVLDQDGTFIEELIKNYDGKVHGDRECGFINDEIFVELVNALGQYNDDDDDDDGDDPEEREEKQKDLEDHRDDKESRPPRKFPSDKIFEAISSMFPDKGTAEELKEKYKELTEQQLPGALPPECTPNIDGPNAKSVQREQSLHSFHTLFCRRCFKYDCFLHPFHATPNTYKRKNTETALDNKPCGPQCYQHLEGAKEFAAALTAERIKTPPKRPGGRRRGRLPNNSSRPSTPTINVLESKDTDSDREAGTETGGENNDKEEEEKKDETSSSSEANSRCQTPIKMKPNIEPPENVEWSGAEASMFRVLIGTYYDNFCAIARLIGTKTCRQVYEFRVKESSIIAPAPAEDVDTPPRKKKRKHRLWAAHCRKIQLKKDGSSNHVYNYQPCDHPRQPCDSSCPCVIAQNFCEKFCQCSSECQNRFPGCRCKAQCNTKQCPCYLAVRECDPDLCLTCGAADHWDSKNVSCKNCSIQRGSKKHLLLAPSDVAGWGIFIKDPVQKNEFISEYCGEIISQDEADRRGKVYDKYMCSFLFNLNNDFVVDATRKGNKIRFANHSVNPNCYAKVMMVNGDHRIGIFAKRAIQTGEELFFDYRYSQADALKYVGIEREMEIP
T4 sequence (O75530 whole entry partner): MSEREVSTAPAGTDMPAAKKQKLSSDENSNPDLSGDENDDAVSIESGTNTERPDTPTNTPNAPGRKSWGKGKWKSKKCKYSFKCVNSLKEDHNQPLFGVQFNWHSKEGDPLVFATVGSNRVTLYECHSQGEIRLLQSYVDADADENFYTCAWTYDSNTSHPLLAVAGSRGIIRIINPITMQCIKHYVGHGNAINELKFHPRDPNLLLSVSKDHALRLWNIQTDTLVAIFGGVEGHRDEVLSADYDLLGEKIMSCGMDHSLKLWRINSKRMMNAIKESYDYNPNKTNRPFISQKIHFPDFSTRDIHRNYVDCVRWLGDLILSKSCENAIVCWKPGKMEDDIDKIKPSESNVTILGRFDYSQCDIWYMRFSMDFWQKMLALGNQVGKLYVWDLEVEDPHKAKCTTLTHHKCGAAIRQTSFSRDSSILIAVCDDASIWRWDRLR
T4 sequence (Q15022 whole entry partner): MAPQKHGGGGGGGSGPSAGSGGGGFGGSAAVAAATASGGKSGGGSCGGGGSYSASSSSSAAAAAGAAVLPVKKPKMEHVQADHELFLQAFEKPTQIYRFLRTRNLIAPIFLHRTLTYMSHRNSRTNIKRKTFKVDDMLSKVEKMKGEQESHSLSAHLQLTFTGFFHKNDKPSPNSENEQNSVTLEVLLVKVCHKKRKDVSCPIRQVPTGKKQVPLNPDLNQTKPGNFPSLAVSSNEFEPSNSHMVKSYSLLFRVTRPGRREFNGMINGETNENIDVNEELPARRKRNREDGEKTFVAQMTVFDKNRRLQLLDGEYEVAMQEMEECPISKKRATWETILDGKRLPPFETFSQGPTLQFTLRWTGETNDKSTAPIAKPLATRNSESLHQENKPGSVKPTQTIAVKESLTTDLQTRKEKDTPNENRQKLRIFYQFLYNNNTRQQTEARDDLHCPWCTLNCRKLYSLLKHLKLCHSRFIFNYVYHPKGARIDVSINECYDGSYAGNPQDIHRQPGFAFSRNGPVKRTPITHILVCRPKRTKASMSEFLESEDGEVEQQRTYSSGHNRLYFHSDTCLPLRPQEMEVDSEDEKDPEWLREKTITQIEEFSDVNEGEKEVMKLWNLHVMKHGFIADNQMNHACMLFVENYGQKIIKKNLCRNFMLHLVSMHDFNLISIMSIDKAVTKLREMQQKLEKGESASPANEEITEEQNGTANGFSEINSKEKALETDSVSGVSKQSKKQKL

## COc1cc(OC)cc(-c2noc(N3CCN(C)C4(CCN(c5ccccc5)CC4)C3)n2)c1 [MRK-740 -NC]
PRMT3; 1µM compound, Exp1, Exp2
  activity at 1 µM: 105%
PRMT3; 1µM compound, Exp1, Exp2, 1 µM
  Activity %: 106%
PRMT3; 10µM compound, Exp1, Exp2
  activity at 10 µM: 104%
PRMT3; [2]
  Activity %: 97%
MLL3 pentameric complex; 1µM compound, Exp1, Exp2
  activity at 1 µM: 108%
MLL3 pentameric complex; 1µM compound, Exp1, Exp2, 1 µM
  Activity %: 105%
MLL3 pentameric complex; 10µM compound, Exp1, Exp2
  activity at 10 µM: 107%
MLL3 pentameric complex; [2]
  Activity %: 95%
SUV39H1; 1µM compound, Exp1, Exp2
  activity at 1 µM: 100%
SUV39H1; 1µM compound, Exp1, Exp2, 1 µM
  Activity %: 104%
SUV39H1; 10µM compound, Exp1, Exp2
  activity at 10 µM: 101%
[1]; 1µM compound, Exp1, Exp2
  activity at 1 µM: 99%
[1]; 1µM compound, Exp1, Exp2, 1 µM
  Activity %: 112%
[1]; 10µM compound, Exp1, Exp2
  activity at 10 µM: 100%
[1]; [2]
  Activity %: 95%
PRMT6; 1µM compound, Exp1, Exp2
  activity at 1 µM: 98%
PRMT6; 1µM compound, Exp1, Exp2, 1 µM
  Activity %: 97%
PRMT6; 10µM compound, Exp1, Exp2
  activity at 10 µM: 96%
PRMT6; [2]
  Activity %: 95%
SUV420H1; 1µM compound, Exp1, Exp2
  activity at 1 µM: 103%
SUV420H1; 1µM compound, Exp1, Exp2, 1 µM
  Activity %: 105%
SUV420H1; 10µM compound, Exp1, Exp2
  activity at 10 µM: 99%
SUV420H1; [2]
  Activity %: 95%
SETD7; 1µM compound, Exp1, Exp2
  activity at 1 µM: 96%
SETD7; 1µM compound, Exp1, Exp2, 1 µM
  Activity %: 95%
SETD7; 10µM compound, Exp1, Exp2
  activity at 10 µM: 94%
SETD7; [2]
  Activity %: 88%

## COc1cc(OC)cc(-c2noc(N3CCN(C)C4(CCN(c5ccnc(C)c5)CC4)C3)n2)c1 [MRK-740]
PRMT3; 1µM compound, Exp1, Exp2, 1 µM
  Activity %: 88%
PRMT3; [3]
  activity at 1 µM: 90%
PRMT3; [2]
  Activity %: 87%
PRMT3; [4]
  activity at 10 µM: 92%
MLL3 pentameric complex; 1µM compound, Exp1, Exp2, 1 µM
  Activity %: 95%
MLL3 pentameric complex; [3]
  activity at 1 µM: 89%
MLL3 pentameric complex; [2]
  Activity %: 86%
MLL3 pentameric complex; [4]
  activity at 10 µM: 94%
SUV39H1; 1µM compound, Exp1, Exp2, 1 µM
  Activity %: 85%
SUV39H1; [3]
  activity at 1 µM: 84%
SUV39H1; [2]
  Activity %: 80%
SUV39H1; [4]
  activity at 10 µM: 84%
[1]; 1µM compound, Exp1, Exp2, 1 µM
  Activity %: 104%
[1]; [3]
  activity at 1 µM: 102%
[1]; [2]
  Activity %: 103%
[1]; [4]
  activity at 10 µM: 102%
PRMT6; 1µM compound, Exp1, Exp2, 1 µM
  Activity %: 94%
PRMT6; [3]
  activity at 1 µM: 98%
PRMT6; [2]
  Activity %: 93%
PRMT6; [4]
  activity at 10 µM: 98%
SUV420H1; 1µM compound, Exp1, Exp2, 1 µM
  Activity %: 102%
SUV420H1; [3]
  activity at 1 µM: 101%
SUV420H1; [2]
  Activity %: 103%
SUV420H1; [4]
  activity at 10 µM: 86%
SETD7; 1µM compound, Exp1, Exp2, 1 µM
  Activity %: 92%
SETD7; [3]
  activity at 1 µM: 93%
SETD7; [2]
  Activity %: 87%
SETD7; [4]
  activity at 10 µM: 90%
